# The source made the active and inactive calls. How the calls were made is not given here.
# Tested on: rodent lifetime carcinogenesis bioassay, tumor incidence TD50
# Experiment: carcinogenic potency in animals, long-term in vivo studies, CPDB compilation (AID 1745844)
structure (smiles),measurement,setting,value
CNNCc1ccc(C(=O)NC(C)C)cc1,TD50,"monkey, strain Cynomolgus [Macaca fascicularis], both sexes, several routes, site: all sites, lesion: acute nonlymphocytic leukemia, dosed 825 weeks, study length 980 weeks",14.8 mg/kg/day
same,TD50,"monkey, strain Cynomolgus [Macaca fascicularis], both sexes, several routes, site: all sites, lesion: lymphocytic lymphoma, dosed 825 weeks, study length 980 weeks",21.1 mg/kg/day
same,TD50,"monkey, strain Cynomolgus [Macaca fascicularis], both sexes, several routes, site: any site (literature study), lesion: malignant tumor, dosed 825 weeks, study length 980 weeks",1.73 mg/kg/day
same,TD50,"monkey, strain Cynomolgus [Macaca fascicularis], both sexes, several routes, site: bone, lesion: osteosarcoma, dosed 825 weeks, study length 980 weeks",5.91 mg/kg/day
same,TD50,"monkey, strain Cynomolgus [Macaca fascicularis], both sexes, several routes, site: brain, lesion: astrocytoma, dosed 825 weeks, study length 980 weeks",6.19 mg/kg/day
same,TD50,"monkey, strain Cynomolgus [Macaca fascicularis], both sexes, several routes, site: kidney, lesion: hemangiosarcoma, dosed 825 weeks, study length 980 weeks",23.5 mg/kg/day
same,TD50,"monkey, strain Rhesus [Macaca mulatta], both sexes, several routes, site: all sites, lesion: acute nonlymphocytic leukemia, dosed 825 weeks, study length 1182 weeks",4.21 mg/kg/day
same,TD50,"monkey, strain Rhesus [Macaca mulatta], both sexes, several routes, site: any site (literature study), lesion: malignant tumor, dosed 825 weeks, study length 1182 weeks",1.9 mg/kg/day
same,TD50,"monkey, strain Rhesus [Macaca mulatta], both sexes, several routes, site: cecum, lesion: adenocarcinoma, dosed 825 weeks, study length 1182 weeks",5.16 mg/kg/day
same,TD50,"monkey, strain Rhesus [Macaca mulatta], both sexes, several routes, site: humerus, lesion: osteosarcoma, dosed 825 weeks, study length 1182 weeks",32.7 mg/kg/day
same,TD50,"monkey, strain Rhesus [Macaca mulatta], both sexes, several routes, site: kidney, lesion: hemangiosarcoma, dosed 825 weeks, study length 1182 weeks",39.6 mg/kg/day
same,TD50,"mouse, strain B6C3F1, females, i.p., site: all sites + brain + lung + uterus, lesion: leukemia + lymphoma + olfactory neuroblastoma + alveolar/bronchiolar adenoma + adenocarcinoma, NOS, dosed 52 weeks, study length 85 weeks",0.194 mg/kg/day
same,TD50,"mouse, strain B6C3F1, females, i.p., site: all sites, lesion: leukemia + lymphoma, dosed 52 weeks, study length 80 weeks",0.69 mg/kg/day
same,TD50,"mouse, strain B6C3F1, females, i.p., site: all sites, lesion: leukemia + lymphoma, dosed 52 weeks, study length 85 weeks",0.758 mg/kg/day
same,TD50,"mouse, strain B6C3F1, females, i.p., site: all sites, lesion: lymphoma, dosed 52 weeks, study length 80 weeks",0.855 mg/kg/day
same,TD50,"mouse, strain B6C3F1, females, i.p., site: all sites, lesion: lymphoma, dosed 52 weeks, study length 85 weeks",0.908 mg/kg/day
same,TD50,"mouse, strain B6C3F1, females, i.p., site: any site (literature study), lesion: several types, types named in the paper, dosed 52 weeks, study length 85 weeks",0.193 mg/kg/day
same,TD50,"mouse, strain B6C3F1, females, i.p., site: brain, lesion: olfactory neuroblastoma, dosed 52 weeks, study length 80 weeks",5.62 mg/kg/day
same,TD50,"mouse, strain B6C3F1, females, i.p., site: brain, lesion: olfactory neuroblastoma, dosed 52 weeks, study length 85 weeks",6.34 mg/kg/day
same,TD50,"mouse, strain B6C3F1, females, i.p., site: lung, lesion: alveolar/bronchiolar adenoma + alveolar/bronchiolar carcinoma, dosed 52 weeks, study length 85 weeks",3.83 mg/kg/day
same,TD50,"mouse, strain B6C3F1, females, i.p., site: lung, lesion: alveolar/bronchiolar adenoma, dosed 52 weeks, study length 80 weeks",3.39 mg/kg/day
same,TD50,"mouse, strain B6C3F1, females, i.p., site: lung, lesion: alveolar/bronchiolar adenoma, dosed 52 weeks, study length 85 weeks",3.83 mg/kg/day
same,TD50,"mouse, strain B6C3F1, females, i.p., site: uterus, lesion: adenocarcinoma, NOS, dosed 52 weeks, study length 80 weeks",0.411 mg/kg/day
same,TD50,"mouse, strain B6C3F1, females, i.p., site: uterus, lesion: adenocarcinoma, NOS, dosed 52 weeks, study length 85 weeks",0.253 mg/kg/day
same,TD50,"mouse, strain B6C3F1, males, i.p., site: all sites + brain + lung, lesion: leukemia + lymphoma + olfactory neuroblastoma + undifferentiated carcinoma + alveolar/bronchiolar adenoma + alveolar/bronchiolar c, dosed 52 weeks, study length 85 weeks",0.511 mg/kg/day
same,TD50,"mouse, strain B6C3F1, males, i.p., site: all sites, lesion: leukemia + lymphoma, dosed 52 weeks, study length 85 weeks",3.34 mg/kg/day
same,TD50,"mouse, strain B6C3F1, males, i.p., site: any site (literature study), lesion: several types, types named in the paper, dosed 52 weeks, study length 85 weeks",0.464 mg/kg/day
same,TD50,"mouse, strain B6C3F1, males, i.p., site: brain, lesion: olfactory neuroblastoma + undifferentiated carcinoma, dosed 52 weeks, study length 85 weeks",4.51 mg/kg/day
same,TD50,"mouse, strain B6C3F1, males, i.p., site: brain, lesion: olfactory neuroblastoma, dosed 52 weeks, study length 85 weeks",5.19 mg/kg/day
same,TD50,"mouse, strain B6C3F1, males, i.p., site: liver, lesion: hepatocellular adenoma + hepatocellular carcinoma + neoplastic nodule, dosed 52 weeks, study length 85 weeks",3.28 mg/kg/day
same,TD50,"mouse, strain B6C3F1, males, i.p., site: lung, lesion: alveolar/bronchiolar adenoma + alveolar/bronchiolar carcinoma, dosed 52 weeks, study length 85 weeks",0.623 mg/kg/day
same,TD50,"mouse, strain B6C3F1, males, i.p., site: lung, lesion: alveolar/bronchiolar adenoma, dosed 52 weeks, study length 85 weeks",0.721 mg/kg/day
same,TD50,"mouse, strain Swiss, females, i.p., site: all sites, lesion: leukemia, dosed 26 weeks, study length 76 weeks",3.72 mg/kg/day
same,TD50,"mouse, strain Swiss, females, i.p., site: all sites, lesion: lymphosarcoma, dosed 26 weeks, study length 76 weeks",6.99 mg/kg/day
same,TD50,"mouse, strain Swiss, females, i.p., site: any site (literature study), lesion: benign tumor, dosed 26 weeks, study length 76 weeks",27.8 mg/kg/day
same,TD50,"mouse, strain Swiss, females, i.p., site: any site (literature study), lesion: malignant tumor, dosed 26 weeks, study length 76 weeks",0.391 mg/kg/day
same,TD50,"mouse, strain Swiss, females, i.p., site: any site (literature study), lesion: several types, types named in the paper, dosed 26 weeks, study length 76 weeks",0.244 mg/kg/day
same,TD50,"mouse, strain Swiss, females, i.p., site: lung, lesion: several types, types named in the paper, dosed 26 weeks, study length 76 weeks",1.05 mg/kg/day
same,TD50,"mouse, strain Swiss, females, i.p., site: uterus, lesion: carcinoma, dosed 26 weeks, study length 76 weeks",5.75 mg/kg/day
same,TD50,"mouse, strain Swiss, females, i.p., site: uterus, lesion: sarcoma, dosed 26 weeks, study length 76 weeks",6.11 mg/kg/day
same,TD50,"mouse, strain Swiss, males, i.p., site: any site (literature study), lesion: benign tumor, dosed 26 weeks, study length 78 weeks",9.84 mg/kg/day
same,TD50,"mouse, strain Swiss, males, i.p., site: any site (literature study), lesion: malignant tumor, dosed 26 weeks, study length 78 weeks",1.74 mg/kg/day
same,TD50,"mouse, strain Swiss, males, i.p., site: any site (literature study), lesion: several types, types named in the paper, dosed 26 weeks, study length 78 weeks",1.15 mg/kg/day
same,TD50,"mouse, strain Swiss, males, i.p., site: lung, lesion: several types, types named in the paper, dosed 26 weeks, study length 78 weeks",1.53 mg/kg/day
same,TD50,"rat, strain BR 46, males, i.v., site: any site (literature study), lesion: malignant tumor, dosed 52 weeks, study length 104 weeks",3.93 mg/kg/day
same,TD50,"rat, strain BR 46, males, i.v., site: any site (literature study), lesion: several types, types named in the paper, dosed 52 weeks, study length 104 weeks",4.01 mg/kg/day
same,TD50,"rat, strain Sprague-Dawley, females, i.p., site: all sites + brain + cerebrum + mammary gland, lesion: lymphoma + olfactory neuroblastoma + mucinous adenocarcinoma + adenocarcinoma, NOS + adenoma, NOS, dosed 26 weeks, study length 86 weeks",0.337 mg/kg/day
same,TD50,"rat, strain Sprague-Dawley, females, i.p., site: all sites, lesion: lymphoma, dosed 26 weeks, study length 80 weeks",4.48 mg/kg/day
same,TD50,"rat, strain Sprague-Dawley, females, i.p., site: all sites, lesion: lymphoma, dosed 26 weeks, study length 86 weeks",5.18 mg/kg/day
same,TD50,"rat, strain Sprague-Dawley, females, i.p., site: any site (literature study), lesion: several types, types named in the paper, dosed 26 weeks, study length 86 weeks",0.329 mg/kg/day
same,TD50,"rat, strain Sprague-Dawley, females, i.p., site: brain + cerebrum, lesion: olfactory neuroblastoma + mucinous adenocarcinoma, dosed 26 weeks, study length 80 weeks",0.36 mg/kg/day
same,TD50,"rat, strain Sprague-Dawley, females, i.p., site: brain + cerebrum, lesion: olfactory neuroblastoma + mucinous adenocarcinoma, dosed 26 weeks, study length 86 weeks",0.416 mg/kg/day
same,TD50,"rat, strain Sprague-Dawley, females, i.p., site: brain, lesion: olfactory neuroblastoma, dosed 26 weeks, study length 80 weeks",0.361 mg/kg/day
same,TD50,"rat, strain Sprague-Dawley, females, i.p., site: brain, lesion: olfactory neuroblastoma, dosed 26 weeks, study length 86 weeks",0.418 mg/kg/day
same,TD50,"rat, strain Sprague-Dawley, females, i.p., site: mammary gland, lesion: adenocarcinoma, NOS + adenoma, NOS, dosed 26 weeks, study length 80 weeks",0.396 mg/kg/day
same,TD50,"rat, strain Sprague-Dawley, females, i.p., site: mammary gland, lesion: adenocarcinoma, NOS + adenoma, NOS, dosed 26 weeks, study length 86 weeks",0.458 mg/kg/day
same,TD50,"rat, strain Sprague-Dawley, females, i.p., site: mammary gland, lesion: adenocarcinoma, NOS, dosed 26 weeks, study length 80 weeks",0.397 mg/kg/day
same,TD50,"rat, strain Sprague-Dawley, females, i.p., site: mammary gland, lesion: adenocarcinoma, NOS, dosed 26 weeks, study length 86 weeks",0.459 mg/kg/day
same,TD50,"rat, strain Sprague-Dawley, males, i.p., site: all sites + brain + mammary gland + olfactory bulb, lesion: leukemia + lymphoma + carcinoma, NOS + olfactory neuroblastoma + adenocarcinoma, NOS + adenoma, NOS, dosed 26 weeks, study length 61 weeks",0.284 mg/kg/day
same,TD50,"rat, strain Sprague-Dawley, males, i.p., site: all sites, lesion: leukemia + lymphoma, dosed 26 weeks, study length 61 weeks",2.1 mg/kg/day
same,TD50,"rat, strain Sprague-Dawley, males, i.p., site: all sites, lesion: leukemia, dosed 26 weeks, study length 61 weeks",13.3 mg/kg/day
same,TD50,"rat, strain Sprague-Dawley, males, i.p., site: all sites, lesion: lymphoma, dosed 26 weeks, study length 61 weeks",2.51 mg/kg/day
same,TD50,"rat, strain Sprague-Dawley, males, i.p., site: any site (literature study), lesion: several types, types named in the paper, dosed 26 weeks, study length 61 weeks",0.186 mg/kg/day
same,TD50,"rat, strain Sprague-Dawley, males, i.p., site: brain + olfactory bulb, lesion: carcinoma, NOS + olfactory neuroblastoma + adenocarcinoma, NOS, dosed 26 weeks, study length 61 weeks",0.343 mg/kg/day
same,TD50,"rat, strain Sprague-Dawley, males, i.p., site: mammary gland, lesion: adenocarcinoma, NOS + adenoma, NOS, dosed 26 weeks, study length 61 weeks",4.5 mg/kg/day
same,TD50,"rat, strain Sprague-Dawley, males, i.p., site: mammary gland, lesion: adenocarcinoma, NOS, dosed 26 weeks, study length 61 weeks",4.85 mg/kg/day
same,TD50,"rat, strain Sprague-Dawley, males, i.p., site: olfactory bulb, lesion: adenocarcinoma, NOS, dosed 26 weeks, study length 61 weeks",4.67 mg/kg/day
NC(=O)c1cnccn1,TD50,"mouse, strain B6C3F1, females, in feed, site: any site (literature study), lesion: several types, types named in the paper, dosed 78 weeks, study length 104 weeks",3430 mg/kg/day
same,TD50,"mouse, strain B6C3F1, females, in feed, site: liver, lesion: hepatocellular adenoma + hepatocellular carcinoma + neoplastic nodule, dosed 78 weeks, study length 104 weeks",10700 mg/kg/day
same,TD50,"mouse, strain B6C3F1, males, in feed, site: any site (literature study), lesion: several types, types named in the paper, dosed 78 weeks, study length 104 weeks",546 mg/kg/day (inactive)
same,TD50,"mouse, strain B6C3F1, males, in feed, site: liver, lesion: hepatocellular adenoma + hepatocellular carcinoma + neoplastic nodule, dosed 78 weeks, study length 104 weeks",5180 mg/kg/day
same,TD50,"rat, strain Fischer 344, females, in feed, site: any site (literature study), lesion: several types, types named in the paper, dosed 78 weeks, study length 104 weeks",182 mg/kg/day
same,TD50,"rat, strain Fischer 344, females, in feed, site: pituitary gland, lesion: chromophobe adenoma + chromophobe carcinoma, dosed 78 weeks, study length 104 weeks",178 mg/kg/day (inactive)
same,TD50,"rat, strain Fischer 344, males, in feed, site: any site (literature study), lesion: several types, types named in the paper, dosed 78 weeks, study length 104 weeks",284 mg/kg/day (inactive)
OC[C@H]1O[C@H](O[C@]2(CCl)O[C@H](CCl)[C@@H](O)[C@@H]2O)[C@H](O)[C@@H](O)[C@H]1Cl,carcinogen call,"mouse, strain Charles River CD1, females, in feed, site: any site (literature study), lesion: several types, types named in the paper, dosed 104 weeks, study length 104 weeks",negative (inactive)
same,carcinogen call,"mouse, strain Charles River CD1, females, in feed, site: liver, lesion: hepatocellular adenoma, dosed 104 weeks, study length 104 weeks",negative (inactive)
same,TD50,"mouse, strain Charles River CD1, females, in feed, site: liver, lesion: hepatocellular carcinoma, dosed 104 weeks, study length 104 weeks",98200 mg/kg/day (inactive)
same,carcinogen call,"mouse, strain Charles River CD1, females, in feed, site: lung, lesion: adenoma, dosed 104 weeks, study length 104 weeks",negative (inactive)
same,carcinogen call,"mouse, strain Charles River CD1, females, in feed, site: lung, lesion: carcinoma, dosed 104 weeks, study length 104 weeks",negative (inactive)
same,carcinogen call,"mouse, strain Charles River CD1, males, in feed, site: any site (literature study), lesion: several types, types named in the paper, dosed 104 weeks, study length 104 weeks",negative (inactive)
same,carcinogen call,"mouse, strain Charles River CD1, males, in feed, site: liver, lesion: hepatocellular adenoma, dosed 104 weeks, study length 104 weeks",negative (inactive)
same,carcinogen call,"mouse, strain Charles River CD1, males, in feed, site: liver, lesion: hepatocellular carcinoma, dosed 104 weeks, study length 104 weeks",negative (inactive)
same,TD50,"mouse, strain Charles River CD1, males, in feed, site: lung, lesion: adenoma, dosed 104 weeks, study length 104 weeks",35100 mg/kg/day (inactive)
same,carcinogen call,"mouse, strain Charles River CD1, males, in feed, site: lung, lesion: carcinoma, dosed 104 weeks, study length 104 weeks",negative (inactive)

# Source: PubChem BioAssay AID1745844 (Carcinogenic Potency Database (CPDB), 2022)
